Assay results taken from ChEMBL document CHEMBL2331473, “Two-component covalent inhibitor” (Bioorg Med Chem, 2013).
Active and inactive are the calls of the source. The calls are words filed in the database; no cut-off is given here.

Legend:
Tequatrovirus T4 [1] = assay: Inhibition of Enterobacteria phage T4 DNA polymerase using biotin-labeled oligonucleotide hairpin substrate containing pre-reactive group at 3'-end assessed as loss of hairpin substrate elongation product at 10 uM incubated for 15 mins in presence of 4000 fold-excess of non-specific T7 RNA polymerase by PAGE method and filter binding assay
Tequatrovirus T4 [2] = assay: Inhibition of Enterobacteria phage T4 DNA polymerase using biotin-labeled oligonucleotide hairpin substrate containing pre-reactive group at 3'-end assessed as loss of hairpin substrate elongation product at 10 uM incubated for 15 mins by PAGE method and filter binding assay

O=C(CCCc1ccc2ccc3cccc4ccc1c2c34)NC/C=C/c1cn([C@H]2C[C@H](O)[C@@H](COP(=O)(O)OP(=O)(O)OP(=O)(O)O)O2)c(=O)[nH]c1=O was tested, and the inhibition (Tequatrovirus T4 [1]) was “Active” and the inhibition (Tequatrovirus T4 [2]) was 87%.
